Test results taken from patent publication US20260060250A1, “HERBICIDAL PYRIDONE DERIVATIVES” (SYNGENTA CROP PROTECTION AG, priority 2022, published 2026).

Columns and labels:
Format in all cases: in vivo
Details in all cases: evaluated after 13 days
Setaria faberi (SETFA) [1] = assay: Pre-emergence Test (Table B1); parameters: key: 5=81-100%; 4=61-80%; 3=41-60%; 2=21-40%; 1=0-20%; 0=inactive
Zea mays (ZEAMX) [2] = assay: Pre-emergence Test (Table B1); parameters: key: 5=81-100%; 4=61-80%; 3=41-60%; 2=21-40%; 1=0-20%; 0=inactive
[3] = system: Amaranthus palmeri (AMAPA); assay: Pre-emergence Test (Table B1); parameters: key: 5=81-100%; 4=61-80%; 3=41-60%; 2=21-40%; 1=0-20%; 0=inactive
[4] = system: Echinochloa crus-galli (ECHCG); assay: Post-emergence Test (Table B2)
Protocol: (§1) Seeds of a variety of test species are sown in standard soil in pots (Amaranthus palmeri (AMAPA), Setaria faberi (SETFA), Echinochloa crus-galli (ECHCG), (Amaranthus retroflexus (AMARE), Zea mays (ZEAMX), Ipomoea hederacea (IPOHE)). After 8 days cultivation under controlled conditions in a glasshouse (at 24° C./16° C., day/night; 14 hours light; 65% humidity), the plants are sprayed with an aqueous spray solution derived from the formulation of the technical active ingredient in acetone/water (50:50) solution containing 0.5% Tween 20 (polyoxyethelyene sorbitan monolaurate, CAS RN 9005-64-5). Compounds are applied at 1000 g/ha unless otherwise stated. The test plants are then grown in a glasshouse under controlled conditions in a glasshouse (at 24° C./16° C., day/night; 14 hours light; 65% humidity) and watered twice daily. After 13 days the test is evaluated for the percentage damage caused to the plant.

Zea mays (ZEAMX) [5] = assay: Post-emergence Test (Table B2)
Protocol: as §1

[6] = system: Ipomoea hederacea (IPOHE); assay: Post-emergence Test (Table B2)
Protocol: as §1

[7] = system: Amaranthus retroflexus (AMARE); assay: Post-emergence Test (Table B2)
Protocol: as §1

[8] = system: Amaranthus palmeri (AMAPA); assay: Post-emergence Test (Table B2)
Protocol: as §1

Setaria faberi (SETFA) [9] = assay: Post-emergence Test (Table B2)
Protocol: as §1

[10] = system: Echinochloa crus-galli (ECHCG); assay: Pre-emergence Test (Table B1); parameters: key: 5=81-100%; 4=61-80%; 3=41-60%; 2=21-40%; 1=0-20%; 0=inactive
[11] = system: Amaranthus retroflexus (AMARE); assay: Pre-emergence Test (Table B1)
[12] = system: Ipomoea hederacea (IPOHE); assay: Pre-emergence Test (Table B1); parameters: key: 5=81-100%; 4=61-80%; 3=41-60%; 2=21-40%; 1=0-20%; 0=inactive
[13] = lower rate of 250 g per hectare

Structure (SMILES)	percentage damage caused to the plant, SETFA (Setaria faberi (SETFA) [1]; 1000 g/ha)	percentage damage caused to the plant, ZEAMX (Zea mays (ZEAMX) [2]; 1000 g/ha)	percentage damage caused to the plant, AMAPA ([3]; 1000 g/ha)	percentage damage caused to the plant, ECHCG ([4]; 1000 g/ha)	percentage damage caused to the plant, ZEAMX (Zea mays (ZEAMX) [5]; 1000 g/ha)	percentage damage caused to the plant, IPOHE ([6]; 1000 g/ha)	percentage damage caused to the plant, AMARE ([7]; 1000 g/ha)	percentage damage caused to the plant, AMAPA ([8]; 1000 g/ha)	percentage damage caused to the plant, SETFA (Setaria faberi (SETFA) [9]; 1000 g/ha)	percentage damage caused to the plant, ECHCG ([10]; 1000 g/ha)	percentage damage caused to the plant, AMARE ([11]; 1000 g/ha)	percentage damage caused to the plant, IPOHE ([12]; 1000 g/ha)	percentage damage caused to the plant, SETFA (Setaria faberi (SETFA) [1]; [13])	percentage damage caused to the plant, ZEAMX (Zea mays (ZEAMX) [2]; [13])	percentage damage caused to the plant, AMAPA [3, 13]	percentage damage caused to the plant, ECHCG [4, 13]	percentage damage caused to the plant, ZEAMX (Zea mays (ZEAMX) [5]; [13])	percentage damage caused to the plant, IPOHE [6, 13]	percentage damage caused to the plant, AMARE [7, 13]	percentage damage caused to the plant, AMAPA [8, 13]	also measured
C=CC(C)OC(=O)c1cc(-c2c(C)n(CC)c(-c3ccc(Cl)c(Cl)c3)c(C(=O)O)c2=O)c(F)cc1Cl (stereo not drawn) [Compound 21, 5-[4-chloro-2-fluoro-5-(1-methylallyloxycarbonyl)phenyl]-2-(3,4-dichlorophenyl)-1-ethyl-6-methyl-4-oxo-pyridine-3-carboxylic acid]	2 (2=21-40%)	0	5 (5=81-100%)	4 (4=61-80%)	2 (2=21-40%)	3 (3=41-60%)	5 (5=81-100%)	5 (5=81-100%)	3 (3=41-60%)	4 (4=61-80%)	5 (5=81-100%)	3 (3=41-60%)	–	–	–	–	–	–	–	–	–
CC#CC(C)OC(=O)c1cc(-c2c(C)n(CC)c(-c3ccc(Cl)c(Cl)c3)c(C(=O)O)c2=O)c(F)cc1Cl (stereo not drawn) [Compound 22, 5-[4-chloro-2-fluoro-5-(1-methylbut-2-ynoxycarbonyl)phenyl]-2-(3,4-dichlorophenyl)-1-ethyl-6-methyl-4-oxo-pyridine-3-carboxylic acid]	–	–	–	–	–	–	–	–	–	–	–	–	1 (1=0-20%)	1 (1=0-20%)	5 (5=81-100%)	5 (5=81-100%)	3 (3=41-60%)	5 (5=81-100%)	5 (5=81-100%)	5 (5=81-100%)	percentage damage caused to the plant, SETFA (Setaria faberi (SETFA) [9]; [13]): 5 (5=81-100%); percentage damage caused to the plant, ECHCG [10, 13]: 1 (1=0-20%); percentage damage caused to the plant, AMARE [11, 13]: 5 (5=81-100%); percentage damage caused to the plant, IPOHE [12, 13]: 1 (1=0-20%)
CCn1c(C)c(-c2cc(C(=O)OC3CCC3)c(Cl)cc2F)c(=O)c(C(=O)O)c1-c1ccc(Cl)c(Cl)c1 [Compound 23, 5-[4-chloro-5-(cyclobutoxycarbonyl)-2-fluoro-phenyl]-2-(3,4-dichlorophenyl)-1-ethyl-6-methyl-4-oxo-pyridine-3-carboxylic acid]	5 (5=81-100%)	2 (2=21-40%)	5 (5=81-100%)	4 (4=61-80%)	2 (2=21-40%)	2 (2=21-40%)	5 (5=81-100%)	5 (5=81-100%)	5 (5=81-100%)	5 (5=81-100%)	5 (5=81-100%)	4 (4=61-80%)	–	–	–	–	–	–	–	–	–
CCn1c(C)c(-c2cc(C(=O)OC3CCCC3)c(Cl)cc2F)c(=O)c(C(=O)O)c1-c1ccc(Cl)c(Cl)c1 [Compound 24, 5-[4-chloro-5-(cyclopentoxycarbonyl)-2-fluoro-phenyl]-2-(3,4-dichlorophenyl)-1-ethyl-6-methyl-4-oxo-pyridine-3-carboxylic acid]	1 (1=0-20%)	0	5 (5=81-100%)	5 (5=81-100%)	3 (3=41-60%)	4 (4=61-80%)	5 (5=81-100%)	5 (5=81-100%)	5 (5=81-100%)	1 (1=0-20%)	5 (5=81-100%)	3 (3=41-60%)	–	–	–	–	–	–	–	–	–
CCn1c(C)c(-c2cc(C(=O)OC(C)COC)c(Cl)cc2F)c(=O)c(C(=O)O)c1-c1ccc(Cl)c(Cl)c1 (stereo not drawn) [Compound 26, 5-[4-chloro-2-fluoro-5-(2-methoxy-1-methyl-ethoxy)carbonyl-phenyl]-2-(3,4-dichlorophenyl)-1-ethyl-6-methyl-4-oxo-pyridine-3-carboxylic acid]	4 (4=61-80%)	0	5 (5=81-100%)	5 (5=81-100%)	5 (5=81-100%)	5 (5=81-100%)	5 (5=81-100%)	5 (5=81-100%)	5 (5=81-100%)	4 (4=61-80%)	5 (5=81-100%)	3 (3=41-60%)	–	–	–	–	–	–	–	–	–
CCn1c(C)c(-c2cc(C(=O)OC3CC3)c(Cl)cc2F)c(=O)c(C(=O)O)c1-c1ccc(C#N)c(F)c1 [Compound 39, 5-[4-chloro-5-(cyclopropoxycarbonyl)-2-fluoro-phenyl]-2-(4-cyano-3-fluoro-phenyl)-1-ethyl-6-methyl-4-oxo-pyridine-3-carboxylic acid]	–	–	–	–	–	–	–	–	–	–	–	–	0	0	5 (5=81-100%)	4 (4=61-80%)	5 (5=81-100%)	4 (4=61-80%)	5 (5=81-100%)	5 (5=81-100%)	percentage damage caused to the plant, SETFA (Setaria faberi (SETFA) [9]; [13]): 5 (5=81-100%); percentage damage caused to the plant, ECHCG [10, 13]: 0; percentage damage caused to the plant, AMARE [11, 13]: 5 (5=81-100%); percentage damage caused to the plant, IPOHE [12, 13]: 4 (4=61-80%)
CCn1c(C)c(-c2cc(C(=O)OC(C)CC(=O)OC)c(Cl)cc2F)c(=O)c(C(=O)O)c1-c1ccc(Cl)c(Cl)c1 (stereo not drawn) [Compound 42, 5-[4-chloro-2-fluoro-5-(3-methoxy-1-methyl-3-oxo-propoxy)carbonyl-phenyl]-2-(3,4-dichlorophenyl)-1-ethyl-6-methyl-4-oxo-pyridine-3-carboxylic acid]	–	–	–	–	–	–	–	–	–	–	–	–	0	1 (1=0-20%)	1 (1=0-20%)	2 (2=21-40%)	3 (3=41-60%)	3 (3=41-60%)	5 (5=81-100%)	4 (4=61-80%)	percentage damage caused to the plant, SETFA (Setaria faberi (SETFA) [9]; [13]): 2 (2=21-40%); percentage damage caused to the plant, ECHCG [10, 13]: 0; percentage damage caused to the plant, AMARE [11, 13]: 3 (3=41-60%); percentage damage caused to the plant, IPOHE [12, 13]: 0
C#CCC(C)OC(=O)c1cc(-c2c(C)n(CC)c(-c3ccc(Cl)c(Cl)c3)c(C(=O)O)c2=O)c(F)cc1Cl (stereo not drawn) [Compound 43, 5-[4-chloro-2-fluoro-5-(1-methylbut-3-ynoxycarbonyl)phenyl]-2-(3,4-dichlorophenyl)-1-ethyl-6-methyl-4-oxo-pyridine-3-carboxylic acid]	–	–	–	–	–	–	–	–	–	–	–	–	0	0	0	4 (4=61-80%)	4 (4=61-80%)	2 (2=21-40%)	5 (5=81-100%)	5 (5=81-100%)	percentage damage caused to the plant, SETFA (Setaria faberi (SETFA) [9]; [13]): 3 (3=41-60%); percentage damage caused to the plant, ECHCG [10, 13]: 0; percentage damage caused to the plant, AMARE [11, 13]: 2 (2=21-40%); percentage damage caused to the plant, IPOHE [12, 13]: 0
